Measurements published in ChEMBL document CHEMBL6134873, “Identification of Novel Cyclobutane-Based Derivatives as Potent Acetyl-CoA Carboxylase Allosteric Inhibitors for Nonalcoholic Steatohepatitis Drug Discovery” (J Med Chem, 2025).

Legend:
[1] = Inhibition of ACC2 in rat skeletal muscle using KH[14C]O3 as substrate measured after 7 mins in presence of ATP by liquid scintillation counter analysis
Acetyl-CoA carboxylase 1 = Acetyl-CoA carboxylase 1 (Homo sapiens, UniProt Q13085)
Description: Inhibition of recombinant human ACC1 using acetyl-Co A as substrate incubated for 60 mins in presence of ATP by ADP-Glo assay

Acetyl-CoA carboxylase 2 = Acetyl-CoA carboxylase 2 (Homo sapiens, UniProt O00763)
Sequence of Acetyl-CoA carboxylase 2 (O00763 whole entry): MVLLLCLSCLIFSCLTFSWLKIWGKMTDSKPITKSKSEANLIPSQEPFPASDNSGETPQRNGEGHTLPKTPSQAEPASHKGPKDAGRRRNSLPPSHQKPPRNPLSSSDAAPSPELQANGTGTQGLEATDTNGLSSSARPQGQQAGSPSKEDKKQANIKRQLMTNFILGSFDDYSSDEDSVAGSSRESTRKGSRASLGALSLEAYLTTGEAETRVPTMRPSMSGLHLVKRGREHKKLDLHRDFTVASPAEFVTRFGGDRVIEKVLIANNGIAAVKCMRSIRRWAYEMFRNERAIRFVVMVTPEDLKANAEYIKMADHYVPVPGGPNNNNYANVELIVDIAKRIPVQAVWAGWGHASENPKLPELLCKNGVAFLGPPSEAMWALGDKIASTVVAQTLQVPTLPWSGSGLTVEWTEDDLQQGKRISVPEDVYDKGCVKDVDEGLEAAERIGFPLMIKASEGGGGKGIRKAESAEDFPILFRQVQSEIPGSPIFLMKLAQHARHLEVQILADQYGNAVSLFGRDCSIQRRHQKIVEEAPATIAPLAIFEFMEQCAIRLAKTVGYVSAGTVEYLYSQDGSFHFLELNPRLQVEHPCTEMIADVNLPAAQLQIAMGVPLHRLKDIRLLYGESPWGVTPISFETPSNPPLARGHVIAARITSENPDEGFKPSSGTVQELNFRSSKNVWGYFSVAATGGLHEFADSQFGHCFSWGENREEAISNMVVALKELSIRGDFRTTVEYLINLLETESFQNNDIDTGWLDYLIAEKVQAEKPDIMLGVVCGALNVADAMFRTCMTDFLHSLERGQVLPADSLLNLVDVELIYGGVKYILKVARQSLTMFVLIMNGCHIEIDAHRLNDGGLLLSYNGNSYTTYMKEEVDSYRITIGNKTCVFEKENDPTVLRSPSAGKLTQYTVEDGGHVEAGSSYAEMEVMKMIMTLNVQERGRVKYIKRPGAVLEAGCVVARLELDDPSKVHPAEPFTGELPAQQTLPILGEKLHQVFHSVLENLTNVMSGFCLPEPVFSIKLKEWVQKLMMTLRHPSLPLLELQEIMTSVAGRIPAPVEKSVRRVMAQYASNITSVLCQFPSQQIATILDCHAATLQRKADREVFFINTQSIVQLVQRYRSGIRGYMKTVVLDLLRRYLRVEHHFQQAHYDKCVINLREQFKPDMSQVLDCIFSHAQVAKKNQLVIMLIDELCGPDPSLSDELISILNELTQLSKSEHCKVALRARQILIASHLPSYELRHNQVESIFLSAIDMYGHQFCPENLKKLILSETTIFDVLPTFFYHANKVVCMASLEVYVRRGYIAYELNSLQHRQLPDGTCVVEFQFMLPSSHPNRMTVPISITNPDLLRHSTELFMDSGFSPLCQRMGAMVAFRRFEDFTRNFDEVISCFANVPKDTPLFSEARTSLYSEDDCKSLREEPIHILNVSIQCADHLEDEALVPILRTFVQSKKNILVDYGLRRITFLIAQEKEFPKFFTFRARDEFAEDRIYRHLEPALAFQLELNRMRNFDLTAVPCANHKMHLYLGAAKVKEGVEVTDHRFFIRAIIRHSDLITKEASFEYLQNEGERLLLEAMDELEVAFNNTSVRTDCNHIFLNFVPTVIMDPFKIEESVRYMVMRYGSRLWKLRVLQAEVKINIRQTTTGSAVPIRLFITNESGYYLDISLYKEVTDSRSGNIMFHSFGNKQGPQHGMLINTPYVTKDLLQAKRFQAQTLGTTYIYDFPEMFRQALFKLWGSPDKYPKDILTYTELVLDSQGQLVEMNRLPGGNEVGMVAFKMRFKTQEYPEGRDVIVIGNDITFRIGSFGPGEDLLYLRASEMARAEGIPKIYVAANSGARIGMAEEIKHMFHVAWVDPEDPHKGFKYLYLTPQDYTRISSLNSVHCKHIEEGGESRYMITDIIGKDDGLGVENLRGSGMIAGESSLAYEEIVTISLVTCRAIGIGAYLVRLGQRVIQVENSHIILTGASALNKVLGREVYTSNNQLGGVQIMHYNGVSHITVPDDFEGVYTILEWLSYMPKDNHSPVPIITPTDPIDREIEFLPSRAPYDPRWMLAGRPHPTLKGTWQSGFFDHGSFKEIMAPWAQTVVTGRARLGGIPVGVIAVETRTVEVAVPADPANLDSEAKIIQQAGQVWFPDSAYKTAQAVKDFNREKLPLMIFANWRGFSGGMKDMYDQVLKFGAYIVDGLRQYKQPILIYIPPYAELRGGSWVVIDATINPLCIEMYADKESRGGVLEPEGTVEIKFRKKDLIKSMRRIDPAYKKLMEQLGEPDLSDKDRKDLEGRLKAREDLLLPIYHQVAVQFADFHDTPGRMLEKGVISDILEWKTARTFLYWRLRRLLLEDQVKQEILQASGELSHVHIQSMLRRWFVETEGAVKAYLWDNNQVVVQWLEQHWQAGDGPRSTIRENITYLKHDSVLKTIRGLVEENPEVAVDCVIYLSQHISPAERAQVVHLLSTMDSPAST
Description: Inhibition of recombinant human ACC2 using acetyl-Co A as substrate incubated for 60 mins in presence of ATP by ADP-Glo assay

Cytochrome P450 3A4 [2] = target: T1, Cytochrome P450 3A4 (Homo sapiens, UniProt P08684); assay: Inhibition of CYP3A4 (unknown origin) using testosterone as substrate; type: ADME
T1 sequence (P08684 whole entry): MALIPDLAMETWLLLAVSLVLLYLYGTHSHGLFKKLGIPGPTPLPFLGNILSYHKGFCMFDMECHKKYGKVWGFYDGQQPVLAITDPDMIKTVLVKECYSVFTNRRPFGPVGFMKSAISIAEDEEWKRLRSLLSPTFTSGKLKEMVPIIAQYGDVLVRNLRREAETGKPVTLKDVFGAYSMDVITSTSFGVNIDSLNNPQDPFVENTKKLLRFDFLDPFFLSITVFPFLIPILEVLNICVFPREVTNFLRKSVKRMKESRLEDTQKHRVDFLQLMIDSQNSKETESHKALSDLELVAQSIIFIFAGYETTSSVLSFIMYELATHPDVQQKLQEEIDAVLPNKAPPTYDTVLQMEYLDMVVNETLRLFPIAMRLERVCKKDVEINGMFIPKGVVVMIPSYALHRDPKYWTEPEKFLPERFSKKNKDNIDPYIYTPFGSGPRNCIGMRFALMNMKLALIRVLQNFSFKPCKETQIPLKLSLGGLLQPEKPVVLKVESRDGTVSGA

[3] = Volume of distribution in Sprague-Dawley rat at 1 mg/kg, iv measured for 0.25 to 24 hrs by LC-MS/MS analysis; type: ADME, organism-based; conditions: in vivo, time 0.25-24 hrs
Cytochrome P450 2C19 = Cytochrome P450 2C19 (Homo sapiens, UniProt P33261); assay: Inhibition of CYP2C19 (unknown origin); type: ADME
Sequence of Cytochrome P450 2C19 (P33261 whole entry): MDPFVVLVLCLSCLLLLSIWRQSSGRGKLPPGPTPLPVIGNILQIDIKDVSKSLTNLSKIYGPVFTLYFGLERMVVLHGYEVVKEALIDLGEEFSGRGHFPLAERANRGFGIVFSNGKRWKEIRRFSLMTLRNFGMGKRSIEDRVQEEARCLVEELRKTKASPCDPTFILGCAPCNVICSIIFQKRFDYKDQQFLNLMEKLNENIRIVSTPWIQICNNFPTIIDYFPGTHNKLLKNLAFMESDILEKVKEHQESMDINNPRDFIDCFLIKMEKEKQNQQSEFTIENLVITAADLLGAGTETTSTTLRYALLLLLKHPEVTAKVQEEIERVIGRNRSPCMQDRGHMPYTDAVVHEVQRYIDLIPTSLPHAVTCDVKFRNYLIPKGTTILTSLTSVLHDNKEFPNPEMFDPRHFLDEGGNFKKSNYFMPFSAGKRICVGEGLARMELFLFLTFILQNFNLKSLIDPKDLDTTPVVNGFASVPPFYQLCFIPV

[4] = Inhibition of fatty acid synthesis in human HepG2 cells preincubated for 1.5 hrs followed by [14C] acetate addition measured after 1.5 hrs by liquid scintillation counter analysis; type: functional, cell-based
Cytochrome P450 3A4 [5] = target: T1, Cytochrome P450 3A4; assay: Inhibition of CYP3A4 (unknown origin) using midazolam as substrate; type: ADME
[6] = target: Voltage-gated inwardly rectifying potassium channel KCNH2 (Homo sapiens, UniProt Q12809); assay: Inhibition of hERG; type: toxicity
Sequence of Voltage-gated inwardly rectifying potassium channel KCNH2 (Q12809 whole entry): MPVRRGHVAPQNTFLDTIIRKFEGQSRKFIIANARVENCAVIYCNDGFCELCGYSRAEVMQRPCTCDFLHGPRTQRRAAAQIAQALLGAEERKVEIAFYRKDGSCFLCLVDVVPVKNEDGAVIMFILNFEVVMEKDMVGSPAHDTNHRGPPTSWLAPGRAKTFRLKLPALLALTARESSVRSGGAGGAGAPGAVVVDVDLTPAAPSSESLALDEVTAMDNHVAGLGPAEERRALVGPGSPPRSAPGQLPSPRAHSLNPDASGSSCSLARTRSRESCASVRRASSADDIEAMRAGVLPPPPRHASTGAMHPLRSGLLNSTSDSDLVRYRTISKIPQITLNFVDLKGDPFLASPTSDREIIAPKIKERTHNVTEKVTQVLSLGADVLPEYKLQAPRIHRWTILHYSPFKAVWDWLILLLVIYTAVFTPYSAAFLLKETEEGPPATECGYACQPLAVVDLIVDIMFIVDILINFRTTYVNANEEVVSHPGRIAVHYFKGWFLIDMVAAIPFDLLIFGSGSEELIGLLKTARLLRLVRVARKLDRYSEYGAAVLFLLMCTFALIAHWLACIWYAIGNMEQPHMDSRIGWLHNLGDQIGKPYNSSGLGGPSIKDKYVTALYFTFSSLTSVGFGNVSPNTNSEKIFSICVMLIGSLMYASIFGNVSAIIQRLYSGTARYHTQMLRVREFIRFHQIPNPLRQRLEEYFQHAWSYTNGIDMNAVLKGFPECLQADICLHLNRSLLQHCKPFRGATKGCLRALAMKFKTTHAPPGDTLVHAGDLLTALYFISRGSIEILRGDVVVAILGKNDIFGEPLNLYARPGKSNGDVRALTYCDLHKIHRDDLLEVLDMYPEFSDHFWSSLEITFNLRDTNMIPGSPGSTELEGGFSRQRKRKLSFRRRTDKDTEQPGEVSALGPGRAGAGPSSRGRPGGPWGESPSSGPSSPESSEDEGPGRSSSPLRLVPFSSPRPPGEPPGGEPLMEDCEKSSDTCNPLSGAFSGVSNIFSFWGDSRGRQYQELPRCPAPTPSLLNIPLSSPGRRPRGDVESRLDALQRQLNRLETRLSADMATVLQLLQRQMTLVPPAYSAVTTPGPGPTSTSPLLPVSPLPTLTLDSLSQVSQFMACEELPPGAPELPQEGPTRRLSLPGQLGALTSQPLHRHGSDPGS

[7] = Intrinsic clearance in mouse liver microsomes; type: ADME, Microsome; conditions: read-out: CLH
[8] = Protein binding in rat plasma; type: ADME, cell-free; conditions: read-out: PPB (converted)
[9] = Intrinsic clearance in monkey liver microsomes; type: ADME, Macaca mulatta, Microsome; conditions: rhesus monkey, read-out: CLH
[10] = MRT (0 to t) in Sprague-Dawley rat at 3 mg/kg, po measured for 0.25 to 24 hrs by LC-MS/MS analysis; type: ADME, organism-based; conditions: in vivo, time 0.25-24 hrs
[11] = AUC (0 to t) in Sprague-Dawley rat at 3 mg/kg, po measured for 0.25 to 24 hrs by LC-MS/MS analysis; type: ADME, organism-based; conditions: in vivo, time 0.25-24 hrs
Cytochrome P450 2B6 = target: T2, Cytochrome P450 2B6 (Homo sapiens, UniProt P20813); assay: Inhibition of CYP2B6 (unknown origin); type: ADME
T2 sequence (P20813 whole entry): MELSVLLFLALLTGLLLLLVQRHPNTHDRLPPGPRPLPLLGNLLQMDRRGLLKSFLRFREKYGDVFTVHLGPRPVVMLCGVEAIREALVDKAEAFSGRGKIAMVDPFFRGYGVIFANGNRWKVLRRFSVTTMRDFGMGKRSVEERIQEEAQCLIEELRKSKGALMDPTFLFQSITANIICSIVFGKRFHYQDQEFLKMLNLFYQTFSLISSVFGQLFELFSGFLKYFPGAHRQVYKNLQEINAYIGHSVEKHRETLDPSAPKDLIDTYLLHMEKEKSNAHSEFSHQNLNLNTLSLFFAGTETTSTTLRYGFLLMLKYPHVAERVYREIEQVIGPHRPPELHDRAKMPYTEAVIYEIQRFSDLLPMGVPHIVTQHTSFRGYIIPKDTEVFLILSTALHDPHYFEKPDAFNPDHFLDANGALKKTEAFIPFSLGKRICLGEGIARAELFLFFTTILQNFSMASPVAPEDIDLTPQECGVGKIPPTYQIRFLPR

[12] = Protein binding in human plasma; type: ADME, cell-free; conditions: read-out: PPB (converted)
Cytochrome P450 1A2 = target: T3, Cytochrome P450 1A2 (Homo sapiens, UniProt P05177); assay: Inhibition of CYP1A2 (unknown origin); type: ADME
T3 sequence (P05177 whole entry): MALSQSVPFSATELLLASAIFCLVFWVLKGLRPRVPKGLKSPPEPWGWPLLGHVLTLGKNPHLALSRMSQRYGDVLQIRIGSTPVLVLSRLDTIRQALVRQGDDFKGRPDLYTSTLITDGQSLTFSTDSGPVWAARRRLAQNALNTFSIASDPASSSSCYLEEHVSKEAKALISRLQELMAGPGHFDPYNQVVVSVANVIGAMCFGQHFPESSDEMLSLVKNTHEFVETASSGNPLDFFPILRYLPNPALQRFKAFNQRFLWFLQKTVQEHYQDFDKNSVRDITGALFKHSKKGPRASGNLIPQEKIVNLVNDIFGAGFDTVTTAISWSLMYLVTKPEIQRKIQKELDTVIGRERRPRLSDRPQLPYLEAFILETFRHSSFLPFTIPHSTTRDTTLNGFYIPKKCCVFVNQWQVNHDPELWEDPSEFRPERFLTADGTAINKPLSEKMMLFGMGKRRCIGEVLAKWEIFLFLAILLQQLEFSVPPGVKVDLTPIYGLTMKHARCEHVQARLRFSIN

[13] = AUC (0 to t) in Sprague-Dawley rat at 1 mg/kg, iv measured for 0.25 to 24 hrs by LC-MS/MS analysis; type: ADME, organism-based; conditions: in vivo, time 0.25-24 hrs
Cytochrome P450 2D6 = Cytochrome P450 2D6 (Homo sapiens, UniProt P10635); assay: Inhibition of CYP2D6 (unknown origin); type: ADME
Cytochrome P450 2C9 = Cytochrome P450 2C9 (Homo sapiens, UniProt P11712); assay: Inhibition of CYP2C9 (unknown origin); type: ADME
Sequence of Cytochrome P450 2C9 (P11712 whole entry): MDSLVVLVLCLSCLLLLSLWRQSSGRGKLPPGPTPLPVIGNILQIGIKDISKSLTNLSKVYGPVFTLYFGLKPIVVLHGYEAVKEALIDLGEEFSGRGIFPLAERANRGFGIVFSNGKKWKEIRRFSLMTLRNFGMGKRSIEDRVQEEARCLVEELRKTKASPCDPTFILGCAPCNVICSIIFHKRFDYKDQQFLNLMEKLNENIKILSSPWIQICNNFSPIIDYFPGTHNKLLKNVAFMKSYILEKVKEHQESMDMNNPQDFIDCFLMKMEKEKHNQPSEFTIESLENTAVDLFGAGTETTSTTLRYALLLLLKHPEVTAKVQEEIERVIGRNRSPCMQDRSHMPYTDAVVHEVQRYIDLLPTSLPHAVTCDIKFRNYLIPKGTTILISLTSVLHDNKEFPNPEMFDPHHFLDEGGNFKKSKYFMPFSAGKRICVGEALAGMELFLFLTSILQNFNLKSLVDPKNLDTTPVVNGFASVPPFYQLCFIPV

[14] = Tmax in Sprague-Dawley rat at 3 mg/kg, po measured for 0.25 to 24 hrs by LC-MS/MS analysis; type: ADME, organism-based; conditions: in vivo, time 0.25-24 hrs
[15] = Biodistribution in liver of 12 hr-fasted male wild-type Sprague-Dawley rat at 3 mg/kg, po measured after 4 hrs by LC-MS/MS analysis; type: ADME, organism-based; conditions: in vivo
[16] = Intrinsic clearance in rat liver microsomes; type: ADME, Microsome; conditions: read-out: CLH
[17] = Half life in Sprague-Dawley rat at 1 mg/kg, iv measured for 0.25 to 24 hrs by LC-MS/MS analysis; type: ADME, organism-based; conditions: in vivo, time 0.25-24 hrs
[18] = Biodistribution in 12 hr-fasted male wild-type Sprague-Dawley rat assessed as increase in ratio of drug concentration in liver/plasma at 3 mg/kg, po measured for 0.25 to 4 hrs by LC-MS/MS analysis; type: ADME, organism-based; conditions: in vivo, time 0.25-4 hrs
[19] = Intrinsic clearance in human liver microsomes; type: ADME, Microsome; conditions: read-out: CLH
[20] = Intrinsic clearance in dog liver microsomes; type: ADME, Canis lupus familiaris, Microsome; conditions: read-out: CLH
[21] = Cmax in Sprague-Dawley rat at 3 mg/kg, po measured for 0.25 to 24 hrs by LC-MS/MS analysis; type: ADME, organism-based; conditions: in vivo, time 0.25-24 hrs
[22] = Oral bioavailability in Sprague-Dawley rat at 3 mg/kg measured for 0.25 to 24 hrs by LC-MS/MS analysis; type: ADME, organism-based; conditions: in vivo, time 0.25-24 hrs
Cytochrome P450 2C8 = target: T4, Cytochrome P450 2C8 (Homo sapiens, UniProt P10632); assay: Inhibition of CYP2C8 (unknown origin); type: ADME
T4 sequence (P10632 whole entry): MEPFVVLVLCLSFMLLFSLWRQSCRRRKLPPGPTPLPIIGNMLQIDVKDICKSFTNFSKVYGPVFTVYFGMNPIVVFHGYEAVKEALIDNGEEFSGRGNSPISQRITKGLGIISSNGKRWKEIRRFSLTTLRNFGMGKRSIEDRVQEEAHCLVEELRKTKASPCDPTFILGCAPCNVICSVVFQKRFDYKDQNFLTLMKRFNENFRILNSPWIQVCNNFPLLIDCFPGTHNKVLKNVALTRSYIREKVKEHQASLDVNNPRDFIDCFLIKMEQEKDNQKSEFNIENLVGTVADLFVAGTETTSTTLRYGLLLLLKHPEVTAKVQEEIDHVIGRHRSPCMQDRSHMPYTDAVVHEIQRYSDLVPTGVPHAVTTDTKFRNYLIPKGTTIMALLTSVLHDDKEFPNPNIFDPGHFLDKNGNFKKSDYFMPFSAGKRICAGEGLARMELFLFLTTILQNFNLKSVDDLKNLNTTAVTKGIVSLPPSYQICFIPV

[23] = MRT (0 to t) in Sprague-Dawley rat at 1 mg/kg, iv measured for 0.25 to 24 hrs by LC-MS/MS analysis; type: ADME, organism-based; conditions: in vivo, time 0.25-24 hrs
[24] = Clearance in Sprague-Dawley rat at 1 mg/kg, iv measured for 0.25 to 24 hrs by LC-MS/MS analysis; type: ADME, organism-based; conditions: in vivo, time 0.25-24 hrs
[25] = Half life in Sprague-Dawley rat at 3 mg/kg, po measured for 0.25 to 24 hrs by LC-MS/MS analysis; type: ADME, organism-based; conditions: in vivo, time 0.25-24 hrs

O=C(c1c2ccccc2cc2ccccc12)N1CCC(N2CCC[C@@H](C(=O)N3CCOCC3)C2)CC1
IC50 [1]: 61 nM

COc1ccccc1[C@H](Cn1c(=O)n(C2CN(C(=O)N3CCOCC3)C2)c(=O)c2c(C)c(-c3ncco3)sc21)OC1CCOCC1
IC50 (Acetyl-CoA carboxylase 1): 1.1 nM
IC50 (Acetyl-CoA carboxylase 2): 9.14 nM

COc1ccccc1[C@H](Cn1c(=O)n(C2CN(C(=O)N3CC(C)(O)C3)C2)c(=O)c2c(C)c(-c3ncco3)sc21)OC1CCOCC1
IC50 (Acetyl-CoA carboxylase 1): 9.47 nM

COc1ccccc1[C@H](Cn1c(=O)n(C2CN(C(=O)c3ncc[nH]3)C2)c(=O)c2c(C)c(-c3ncco3)sc21)OC1CCOCC1
IC50 (Acetyl-CoA carboxylase 1): 1.52 nM
IC50 (Acetyl-CoA carboxylase 2): 6.18 nM

COc1ccccc1[C@H](Cn1c(=O)n(C2CN(C(=O)c3ccccc3)C2)c(=O)c2c(C)c(-c3ncco3)sc21)OC1CCOCC1
IC50 (Acetyl-CoA carboxylase 1): 5.36 nM

COc1ccccc1[C@H](Cn1c(=O)n([C@H]2C[C@](C)(C(N)=O)C2)c(=O)c2c(C)c(-c3ncco3)sc21)OC1CCOCC1
IC50 (Acetyl-CoA carboxylase 1): 1.05 nM

COc1ccccc1[C@H](Cn1c(=O)n(-c2c(C)ccn3ccnc23)c(=O)c2c(C)c(-c3ncco3)sc21)OC1CCOCC1
IC50 (Acetyl-CoA carboxylase 1): 52.9 nM

COc1ccccc1[C@H](Cn1c(=O)n(C2CC(F)(F)C2)c(=O)c2c(C)c(-c3ncco3)sc21)OC1CCOCC1
IC50 (Acetyl-CoA carboxylase 1): 9.42 nM

COc1ccccc1[C@H](Cn1c(=O)n(CC2(C(=O)O)CC2)c(=O)c2c(C)c(-c3ncco3)sc21)OC1CCOCC1
IC50 (Acetyl-CoA carboxylase 1): 0.85 nM

COc1ccccc1[C@H](Cn1c(=O)n(C(C)(C)C(=O)O)c(=O)c2c(C)c(-c3ncco3)sc21)OC1CCOCC1 [FIRSOCOSTAT]
IC50 (Cytochrome P450 3A4 [2]): > 30 µM
IC50 (Acetyl-CoA carboxylase 1): 0.49 nM
Vd [3]: 21.4 L/kg
IC50 (Cytochrome P450 2C19): > 30 µM
IC50 [4]: 4.8 nM
IC50 (Cytochrome P450 3A4 [5]): > 30 µM
IC50 [6]: > 30 µM
CLint scaled [7]: < 38 mL/min/kg
fraction unbound [8]: 0.014
CLint scaled [9]: < 13 mL/min/kg
MRT last [10]: 4.1 h
AUC(0-t) [11]: 628 ng·h/mL
IC50 (Cytochrome P450 2B6): > 30 µM
fraction unbound [12]: 0.015
IC50 (Cytochrome P450 1A2): > 30 µM
AUC(0-t) [13]: 409 ng·h/mL
IC50 (Cytochrome P450 2D6): > 30 µM
IC50 (Acetyl-CoA carboxylase 2): 5.14 nM
IC50 (Cytochrome P450 2C9): > 30 µM
Tmax [14]: 6 min
Drug uptake [15]: Active
CLint scaled [16]: 4.3 mL/min/kg
half-life [17]: 426 min
Drug uptake [18]: Active
CLint scaled [19]: 6 mL/min/kg
CLint scaled [20]: 7.2 mL/min/kg
Cmax [21]: 213 ng/mL
bioavailability [22]: 51.1%
IC50 (Cytochrome P450 2C8): > 30 µM
MRT last [23]: 102 min
clearance [24]: 33.3 mL/min/kg

COc1ccccc1[C@H](Cn1c(=O)n(C2CN(C(=O)N3CC(C)(C(=O)O)C3)C2)c(=O)c2c(C)c(-c3ncco3)sc21)OC1CCOCC1
IC50 (Acetyl-CoA carboxylase 1): 12.1 nM

COc1ccccc1[C@H](Cn1c(=O)n([C@H]2C[C@](C)(C(=O)O)C2)c(=O)c2c(C)c(-c3ncco3)sc21)OC1CCOCC1
IC50 (Acetyl-CoA carboxylase 1): 1.37 nM
IC50 (Acetyl-CoA carboxylase 2): 16.5 nM

COc1ccccc1[C@H](Cn1c(=O)n([C@H]2C[C@@H](C(=O)O)C2)c(=O)c2c(C)c(-c3ncco3)sc21)OC1CCOCC1
IC50 (Acetyl-CoA carboxylase 1): 0.79 nM
Vd [3]: 2.6 L/kg
MRT last [10]: 0.4 h
AUC(0-t) [11]: 13.8 ng·h/mL
AUC(0-t) [13]: 80.8 ng·h/mL
IC50 (Acetyl-CoA carboxylase 2): 5.13 nM
Tmax [14]: 36 min
half-life [17]: 12 min
half-life [25]: 24 min
Cmax [21]: 21.3 ng/mL
bioavailability [22]: 5.7%
MRT last [23]: 6 min
clearance [24]: 180 mL/min/kg

COc1ccccc1[C@H](Cn1c(=O)n(C2CN(CC(F)(F)F)C2)c(=O)c2c(C)c(-c3ncco3)sc21)OC1CCOCC1
IC50 (Acetyl-CoA carboxylase 1): 0.95 nM

COc1ccccc1[C@H](Cn1c(=O)n(C2CN(C(=O)c3ccccn3)C2)c(=O)c2c(C)c(-c3ncco3)sc21)OC1CCOCC1
IC50 (Acetyl-CoA carboxylase 1): 2.1 nM
IC50 (Acetyl-CoA carboxylase 2): 6.42 nM
